Legend:
GABA-B = GABA-B (Homo sapiens, UniProt Q9UBS5); assay: Receptor profile, GABA-B; type: biochemical
GABA-C = assay: Receptor profile, GABA-C; type: biochemical

GABA-B, sequence (Q9UBS5 15-961 limits assumed): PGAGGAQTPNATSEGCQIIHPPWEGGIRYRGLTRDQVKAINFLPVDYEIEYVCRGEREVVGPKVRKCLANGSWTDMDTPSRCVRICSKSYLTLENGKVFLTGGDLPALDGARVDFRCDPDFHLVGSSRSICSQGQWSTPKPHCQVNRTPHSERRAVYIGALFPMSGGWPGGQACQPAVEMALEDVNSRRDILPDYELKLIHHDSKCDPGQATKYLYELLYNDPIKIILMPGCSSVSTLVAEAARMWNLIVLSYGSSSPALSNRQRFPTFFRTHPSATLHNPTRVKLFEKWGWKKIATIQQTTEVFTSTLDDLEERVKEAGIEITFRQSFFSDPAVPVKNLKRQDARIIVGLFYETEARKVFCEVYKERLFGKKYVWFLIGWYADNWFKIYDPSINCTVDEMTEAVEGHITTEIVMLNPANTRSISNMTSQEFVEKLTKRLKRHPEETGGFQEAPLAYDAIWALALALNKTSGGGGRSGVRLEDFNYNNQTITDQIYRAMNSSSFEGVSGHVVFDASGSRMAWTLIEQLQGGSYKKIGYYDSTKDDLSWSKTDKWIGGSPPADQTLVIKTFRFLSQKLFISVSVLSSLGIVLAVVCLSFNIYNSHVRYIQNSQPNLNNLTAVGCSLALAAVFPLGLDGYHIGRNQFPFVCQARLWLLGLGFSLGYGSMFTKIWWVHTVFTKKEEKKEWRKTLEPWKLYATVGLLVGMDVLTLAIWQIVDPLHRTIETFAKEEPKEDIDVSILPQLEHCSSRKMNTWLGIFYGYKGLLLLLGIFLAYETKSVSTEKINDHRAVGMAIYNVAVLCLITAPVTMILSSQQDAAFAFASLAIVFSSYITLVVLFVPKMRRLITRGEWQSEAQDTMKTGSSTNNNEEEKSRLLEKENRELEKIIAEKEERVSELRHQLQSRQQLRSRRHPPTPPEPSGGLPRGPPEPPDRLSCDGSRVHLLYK
GABA-B, sequence (O75899 42-941 partner): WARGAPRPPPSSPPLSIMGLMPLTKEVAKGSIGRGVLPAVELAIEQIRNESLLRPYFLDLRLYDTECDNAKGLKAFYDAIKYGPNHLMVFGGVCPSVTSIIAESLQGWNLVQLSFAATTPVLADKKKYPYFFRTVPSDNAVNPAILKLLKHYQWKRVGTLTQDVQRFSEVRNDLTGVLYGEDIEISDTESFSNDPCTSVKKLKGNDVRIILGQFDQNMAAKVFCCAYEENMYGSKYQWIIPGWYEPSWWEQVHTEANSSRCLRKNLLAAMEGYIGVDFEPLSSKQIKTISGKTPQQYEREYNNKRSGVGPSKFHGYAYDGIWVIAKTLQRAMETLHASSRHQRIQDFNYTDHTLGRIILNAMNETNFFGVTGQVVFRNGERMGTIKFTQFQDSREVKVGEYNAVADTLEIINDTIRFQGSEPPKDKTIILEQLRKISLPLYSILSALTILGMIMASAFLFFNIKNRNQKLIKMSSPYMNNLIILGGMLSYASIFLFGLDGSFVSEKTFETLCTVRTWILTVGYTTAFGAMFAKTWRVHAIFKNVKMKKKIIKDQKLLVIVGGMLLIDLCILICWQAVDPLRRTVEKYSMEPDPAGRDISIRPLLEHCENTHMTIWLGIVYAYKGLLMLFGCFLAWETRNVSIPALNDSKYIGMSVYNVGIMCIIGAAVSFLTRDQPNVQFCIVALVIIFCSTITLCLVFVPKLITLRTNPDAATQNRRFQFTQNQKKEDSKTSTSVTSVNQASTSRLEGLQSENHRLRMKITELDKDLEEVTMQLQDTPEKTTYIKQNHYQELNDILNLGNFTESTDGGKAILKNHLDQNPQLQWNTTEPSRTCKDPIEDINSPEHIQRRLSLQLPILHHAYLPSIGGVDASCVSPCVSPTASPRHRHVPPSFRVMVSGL

Question: How did the “GABA-B mode of action (agonist/antagonist)” value (GABA-B) turn out when CP(=O)(O)C1=CCNCC1 [TPMPA] was run?
Answer: agonist

Question: And the “GABA-C mode of action (agonist/antagonist)” value (GABA-C)?
Answer: antagonist
